Measured values from patent publication US20260258039A1, “AROMATIC COMPOUND, METHOD FOR PREPARING SAME, AND USE THEREOF IN PREPARATION OF ESTROGEN RECEPTOR DEGRADER” (Hinova Pharmaceuticals Inc., priority 2022, published 2026).
pIC50: −log10 of the molar value. Like-named read-outs stand apart in the source and are kept apart here.

Experiments:
ER [1] = molecular target: T1, ER (Homo sapiens, UniProt P03372); assay: Degradation activities on ER (ELISA) in T47D breast cancer cells; type: cell-based; details: T47D cells, 24 h, ELISA; for DC50: concentration required to degrade 50% of the target protein; for Dmax: maximum percentage of target protein degraded
T1 construct: T47D breast cancer cells were subcultured in cell culture medium; endogenous in cells; host or cells: T47D breast cancer cells
T1 sequence (P03372 1-595): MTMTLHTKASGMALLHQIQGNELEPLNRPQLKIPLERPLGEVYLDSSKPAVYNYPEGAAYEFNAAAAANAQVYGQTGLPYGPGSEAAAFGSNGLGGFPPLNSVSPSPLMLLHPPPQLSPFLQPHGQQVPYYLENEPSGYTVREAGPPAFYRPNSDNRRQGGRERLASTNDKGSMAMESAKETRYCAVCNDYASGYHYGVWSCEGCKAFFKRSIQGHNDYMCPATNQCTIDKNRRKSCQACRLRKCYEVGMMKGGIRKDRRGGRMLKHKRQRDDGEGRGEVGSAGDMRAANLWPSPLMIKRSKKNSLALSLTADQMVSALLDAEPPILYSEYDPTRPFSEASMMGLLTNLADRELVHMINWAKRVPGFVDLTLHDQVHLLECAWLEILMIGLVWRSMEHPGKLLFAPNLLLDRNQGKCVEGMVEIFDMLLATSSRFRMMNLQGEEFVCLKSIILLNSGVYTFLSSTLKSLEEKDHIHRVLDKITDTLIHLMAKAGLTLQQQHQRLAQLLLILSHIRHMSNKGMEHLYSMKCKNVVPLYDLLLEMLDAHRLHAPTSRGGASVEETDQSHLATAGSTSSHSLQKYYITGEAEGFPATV
How it was run: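 Cellular ER degradation ELISA: compound dosed 24 h on T47D cells (2.5×10^4/well, pre-grown 3 days) at six final levels from 100 nM downward. Remaining ER was detected by HRP-TMB absorbance at 450 nm. Dose-response fitting gave DC50 and Dmax, the maximal percentage degraded.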

ER [2] = molecular target: T1, ER; assay: Degradation activities on ER (Western blotting) in T47D breast cancer cells; type: cell-based; details: 24 h, Western blot
How it was run: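 T47D cells seeded 2.5×10^5/well, grown overnight, then treated 24 hours with compound (0.1% DMSO) in duplicate. ERα level measured by Western blot of 30 μg lysate protein, with GAPDH as loading control and ECL chemiluminescence detection.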

[3] = tested on: MCF-7 breast cancer cells; assay: Inhibition of proliferation of MCF-7 breast cancer cells (agarose culture, CellTiter-Glo 3D); type: cell-based; details: MCF-7 cells, 15 days of cultivation, read-out: IC50
[4] = Pharmacokinetics in female ICR mice; details: plasma; for half-life / AUC(0-inf): female, ICR, mouse, po, 3 mg/kg; for AUC(0-inf): AUCinf (μg*h/mL)
Method: Pharmacokinetic experimental steps: A suitable amount of compound to be administered was weighed, and after the final volume required was calculated, a drug solution with corresponding concentration was prepared using the medium (DMSO/HS-15/Tween 80/D5W (5:5:2:88, v/v/v/v)). For intravenous administration, each drug was administered to 9 animals (female ICR mice, provided by Chengdu Dossy Experimental Animal Co., Ltd.) at a dose of 1 mg/kg (drug volume of 10 mL/kg, drug concentration of 0.1 mg/mL). After administration, samples were alternately collected from three animals of each group at time points of 5 min, 15 min, 30 min, 1 h, 2 h, 4 h, 8 h, 12 h, and 24 h. For oral gavage, each drug was administered to 9 animals (female ICR mice) at a dose of 3 mg/kg (drug volume of 10 mL/kg, drug concentration of 0.3 mg/mL). After administration, samples are alternately collected from three animals of each group at time points of 15 min, 30 min, 1 h, 2 h, 4 h, 6 h, 8 h, 12 h, and 24 h. The samples were anticoagulated with EDTA-K2 and centrifuged at 4° C. for 5 min to separate the plasma. The plasma samples were vortexed and mixed. A suitable amount of internal standard working solution was added to the 96-well plate containing samples used for plotting standard curve, samples used for quality control, or samples to be tested; A suitable amount of methanol was added to the blank sample, vortexed and mixed thoroughly, and then centrifuged for 15 min before the supernatant was collected and injected to LC-MS/MS for analysis. The plasma concentration at each time point was used to calculate the main pharmacokinetic parameters using the Winnolin 8.3 non-compartmental model.

[5] = tested on: MCF-7 breast cancer cells; assay: Pharmacodynamic experiment in mouse models of human breast cancer (MCF-7 tumors); type: in vivo, NOD/SCID female mice; details: dose 10 mg/kg, once-daily oral gavage
Method: MCF-7 breast cancer cells were cultured in MEM medium containing 10% FBS, 0.01 mM NEAA, and 10 µg/mL insulin. MCF-7 cells in the exponential growth phase were collected and resuspended in PBS to a suitable concentration for subcutaneous injection into mice. The experimental animals were NOD/SCID female mice (purchased from GemPharmatech Co. Itd, Jiangsu). Before inoculation of tumor cells, a 0.36 mg/60-day slow-release estrogen tablet (17β-estradiol, Innovative Research of America, Sarasota, Florida, USA) was subcutaneously implanted on the right side of the back of the experimental animals. The day after estrogen tablet implantation, 2×10^7 MCF-7 cells were inoculated into the right mammary fatty pad of the experimental mice, wherein the cells were resuspended in PBS and Matrigel (1:1) (0.2 mL/mouse). The tumor growth was regularly observed.
When the tumors in the tumor-bearing mice grew to an average volume of approximately 245.56 mm^3, they were randomly grouped for administration based on tumor size. Grouping was performed using StudyDirector™ (version 3.1.399.19, supplier Studylog System, Inc., S. San Francisco, CA, USA). […]
After starting drug administration, the body weight and tumor size of mice were measured twice a week. […] The raw data were directly imported into the software after being measured using a balance and vernier caliper. […]

[6] = oral administration 3 mg/kg, female ICR mice

Row | DC50 (ER [1]) [nM] | Dmax (ER [1]; read-out: Dmax) [%] | Percentage reduction of ER (ER [2]; compound concentration 1 nM) [%] | pIC50 ([3]; Homo sapiens, MCF7, 360 h) | AUCinf (μg*h/mL) [4, 6] | T1/2 (h) [4, 6] | Percentage reduction of ER (ER [2]; compound concentration 10 nM) [%] | half-life [4] [h] | AUC(0-inf) [4, 6] [ng·h/mL] | Dmax (ER [1]) | pIC50 [3] | Structure (SMILES) | TGI (tumor growth inhibition) ([5]; day 28) [%] | average tumor volume ([5]; end of experiment (day 28)) [mm^3]
1 | < 10 | 50 to 75 | 62 | > 8.00 | B (B: 1.4-2.5 μg*h/mL) | A (A: >3.5 h) |  |  |  |  |  | O=C1CCC(N2Cc3cc(N4CC5(CCN(CC6CCN(c7ccc([C@@H]8c9ccc(O)cc9OC[C@@H]8c8ccccc8F)cc7)CC6)CC5)C4)ccc3C2=O)C(=O)N1 (stereo partly drawn) [Example 30] |  | 
2 | < 10 | 50 to 75 |  | > 8.00 |  |  | 81 | > 3.5 | 1400 to 2500 |  |  | O=C1CCC(N2Cc3cc(N4CC5(CCN(CC6CCN(c7c(F)cc([C@@H]8c9ccc(O)cc9OC[C@@H]8c8ccccc8F)cc7F)CC6)CC5)C4)ccc3C2=O)C(=O)N1 (stereo partly drawn) [Example 32, 3-(5-(7-((1-(2,6-difluoro-4-((3,4-cis)-3-(2-fluorophenyl)-7-hydroxybenzodihydropyran-4-yl)phenyl)piperidin-4-yl)methyl)-2,7-diazaspiro[3.5]nonane-2-yl)-1-oxoisoinodolin-2-yl)piperidin-2,6-dione] |  | 
3 | < 10 |  | 52 |  |  |  |  | > 3.5 | 1400 to 2500 | B (B: 75-50%) | > 8.00 | O=C1CCC(N2Cc3cc(N4CC5(CCN(CC6CCN(c7ccc([C@@H]8c9ccc(O)cc9OC[C@@H]8c8ccccc8F)cc7)CC6)CC5)C4)ccc3C2=O)C(=O)N1 (stereo partly drawn) [Example 89, 3-(5-(7-((1-(4-((3S, 4R)-3-(2-fluorophenyl)-7-hydroxychroman-4-yl)phenyl)piperidin-4-yl)methyl)-2,7-diazaspiro[3.5]nonane-2-yl)-1-oxoisoinodolin-2-yl)piperidin-2,6-dione] |  | 
4 |  | 50 to 75 |  | > 8.00 |  |  | 51 | > 3.5 | > 2500 |  |  | O=C1CCC(N2Cc3cc(N4CC5(CCN(CC6CCN(c7ccc([C@@H]8c9ccc(O)cc9OC[C@@H]8c8c(F)cccc8F)cc7)CC6)CC5)C4)ccc3C2=O)C(=O)N1 (stereo partly drawn) [Example 63, 3-(5-(7-((1-(4-(3-(2,6-difluorophenyl)-7-hydroxyl-chroman-4-yl)phenyl)piperidin-4-yl)methyl)-2,7-diazaspiro[3.5]nonane-2-yl)-1-oxoisoinodolin-2-yl)piperidin-2,6-dione] |  | 
5 |  |  |  |  |  |  |  | 2.3 | 1300 |  |  | O=C1CCC(N2Cc3cc(N4CCN(CC5CCN(c6ccc([C@@H]7c8ccc(O)cc8CC[C@@H]7c7ccccc7)cc6)CC5)CC4)ccc3C2=O)C(=O)N1 (stereo partly drawn) [Control compound X, reference compound] | 29 | 362
